Test results as given in BindingDB's records for PubMed 10869375 (R. W. Johnson Pharmaceutical Research Institute, 2000).
Values joined by “and” are separate entries in the source; they are usually repeats but may differ in a detail not shown here. Equal entries are not always repeated.

How the values were obtained:
[1] = biological target: Hrh3 protein (Rattus norvegicus, UniProt Q5PPG3)
[2] = biological target: Histamine H3 receptor (Homo sapiens, UniProt Q9Y5N1)
Histamine H3 receptor, sequence (Q9Y5N1 whole entry): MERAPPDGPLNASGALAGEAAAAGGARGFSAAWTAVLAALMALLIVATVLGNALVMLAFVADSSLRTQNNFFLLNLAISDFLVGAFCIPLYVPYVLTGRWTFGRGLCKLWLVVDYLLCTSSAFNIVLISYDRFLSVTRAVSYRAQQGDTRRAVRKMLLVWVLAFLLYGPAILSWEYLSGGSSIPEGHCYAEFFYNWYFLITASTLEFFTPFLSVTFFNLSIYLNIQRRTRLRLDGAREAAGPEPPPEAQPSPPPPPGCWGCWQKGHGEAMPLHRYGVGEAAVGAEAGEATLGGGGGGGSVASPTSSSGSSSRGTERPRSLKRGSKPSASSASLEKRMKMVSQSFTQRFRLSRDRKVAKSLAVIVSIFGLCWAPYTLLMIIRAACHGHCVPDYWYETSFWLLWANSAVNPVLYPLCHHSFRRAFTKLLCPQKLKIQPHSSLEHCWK

Hrh3 protein, sequence (Q5PPG3 whole entry): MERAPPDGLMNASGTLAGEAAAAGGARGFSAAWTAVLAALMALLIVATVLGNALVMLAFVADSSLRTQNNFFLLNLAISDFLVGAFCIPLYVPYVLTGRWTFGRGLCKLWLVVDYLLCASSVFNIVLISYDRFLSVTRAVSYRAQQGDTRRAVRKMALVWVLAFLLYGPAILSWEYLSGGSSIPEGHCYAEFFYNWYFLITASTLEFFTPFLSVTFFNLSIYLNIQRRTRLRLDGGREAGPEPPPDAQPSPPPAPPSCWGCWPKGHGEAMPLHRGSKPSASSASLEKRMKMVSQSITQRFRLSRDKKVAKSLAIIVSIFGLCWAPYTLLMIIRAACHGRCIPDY

Ki [2]	Structure (SMILES)	Ki [1]
–	CN1CCN(C2=c3ccccc3=Nc3ccc(Cl)cc3N2)CC1 [6-chloro-10-(4-methylpiperazin-1-yl)-2,9-diazatricyclo[9.4.0.0^{3,8}]pentadeca-1,3(8),4,6,10,12,14-heptaene]	3000 nM and 1750 nM
1.6 nM	c1nc(CC2CCNCC2)c[nH]1 [4-(1H-imidazol-4-ylmethyl)piperidine]	0.5 nM and 1.4 nM
0.6 nM	N=C(N)SCCc1cnc[nH]1 [2-(3H-imidazol-4-yl)ethylsulfanylmethanimidamide]	0.2 nM
–	NCCc1c[nH]cn1 [[3H]histamine]	12 nM and 13.2 nM
–	S=C(NC1CCCCC1)N1CCC(c2cnc[nH]2)CC1	10.2 nM and 4.2 nM

Structure (SMILES)	Ki [2]	Ki [1]
CNCCc1c[nH]cn1 [N(alpha)-Methylhistamine]	2.4 nM	1.2 nM and 1.5 nM
